Test results from US8937050B2, “Methods and compositions for treatment of autism” (The Johns Hopkins University, priority 2011, dated 2015).

Tested on: FL-SMN mRNA
Test: RT-PCR of FL-SMN and total SMN mRNA in spinal muscular atrophy fibroblasts
Type: cell-based, human
Description: Following the manufacturer's protocols, DNase I-treated cDNA was synthesized using Superscript III or Thermoscript reverse transcriptase (Invitrogen). PCR reactions were performed in duplicate on the Roche Lightcycler 3.5 (Basel, Switzerland) or the Bio-Rad iCycler (Hercules, Calif.) using Quantitech SYBR green PCR mix (Qiagen, Valencia, Calif.). GeNorm software calculated a normalization factor for each sample using the relative amounts of at least two of the following reference genes, β2-microglobulin, […], actin, and/or eukaryotic elongation factor 1A (Vandesompele et al., 2002). Primers for the various experiments described herein are listed below.
Type I and type III spinal muscular atrophy (SMA I or SMA III) fibroblasts were treated with SFN for the indicated times. The relative fold increase in the ratio of FL-SMN/total SMN transcripts compared with the untreated cell line (normalized to 1) is plotted. Cell lines from left to right are GM09677, GM00232 and 2906. N≧2 independent experiments.
Spinal muscular atrophy fibroblasts were treated with 1.5 mM SFN alone for 51 hr. (SMA I, GM09677) or treated with 0.5 mM SFN for 8 hr. (SMA III, 2906) with or without […] SP600125 (JNK inhibitor), 2.5 mM 3-methyladenine (autophagy inhibitor, APG), […] antimycin A (mitochondrial inhibitor, MITO) or […] sirtinol (SIRT1 inhibitor). The fold increases in FL-SMN expression compared with either GAPDH or total SMN expression and the fold increase in total SMN expression compared with GAPDH expression after SFN treatment is plotted. Untreated values were normalized to 1 and are indicated by the horizontal line. (n=1 per cell line, performed in duplicate)
To determine which stress pathways are necessary for the increase in FL-SMN production, spinal muscular atrophy fibroblasts were co-treated with SFN and either SP600125, an inhibitor of the JNK pathway (Bennett et al., 2001), 3-methyladenine, an inhibitor of the autophagy pathway (Seglen et al., 1982), antimycin A, a mitochondrial inhibitor (Ranganathan et al., 2009), or sirtinol, an inhibitor of SIRT1 activity (Grozinger et al., 2001). […] SIRT1, an NAD+-dependent deacetylase, is known to regulate cellular stress responses, cellular metabolism and cellular survival (Salminen et al., 2009). Specifically, SIRT1 inhibition reduces the induction of HSR genes (Westerheide et al., 2009); SIRT1 activity enhances SOD2 expression (Anastasiou et al., 2006); SIRT1 negatively regulates the mammalian target of rapamycin triggering autophagy (Haigis et al., 2010); and SIRT1 activates mitochondrial biogenesis via the stress-responsive transcription factor PGC1a (Yu et al., 2009). The yeast ortholog Sir2 is necessary for the induction of mitochondrial biogenesis by 4PBA or HU in Saccharomyces cerevisiae (Cha 2010). […] However, SIRT1 can be activated by various post-translational changes. Therefore, the potential involvement of SIRT1 in the therapeutic effects of these drugs by inhibition studies was evaluated.

`C[S@@+]([O-])CCCCN=C=S` [SFN, 1-isothiocyanato-4R-(methylsulfinyl)butane] was tested, and the “relative expression of FL-SMN transcripts normalized to GAPDH or total SMN transcript levels” value (FIG. 8B) was “increased”, the “total SMN transcript levels normalized to GAPDH transcript levels” value (FIG. 8B) was “remained unchanged” and the “FL-SMN mRNA expression compared with total SMN transcription” value (SMA type I lines GM09677, GM00232 and SMA type III line 96-2906, FIG. 8A) was “significantly increased”.
